Test results as given in article PMC7281206, “Cysteine Cathepsins Inhibition Affects Their Expression and Human Renal Cancer Cell Phenotype” (Cancers, 2020).
*: point of attachment. CH2F = FC*

What was measured:
human recombinant CtsL = test: Fluorescent protease activity assay, recombinant CtsL; format: biochemical; settings: 20 nM CtsL, 50 μM Ac-PLVQ-AMC, inhibitor 2 μM; 0.1 M sodium acetic buffer pH 4.6, 12 min, Ex/Em 353/442 nm
Description: Ac-PLVE-FMK and Ac-VLPE-FMK inhibitory properties were evaluated against human recombinant CtsL and B. These recombinant enzymes were expressed in E. coli via plasmid transformation and further purification, using nickel-nitrilotriacetic acid (Ni-NTA) sepharose. Gel zymography assay was used to provide a preliminary evaluation of the ability of these recombinant proteins to degrade the gelatin substrate previously embedded in the gel (Supplementary Figure S1). Following Coomassie staining, the Cts were detectable as single bands. As expected, a translucent area was evident, due to the substrate digestion in the proximity of the proteins. Then, the recombinant proteins were tested for their ability to digest the Triticain-α substrate Ac-PLVQ via fluorescent protease activity assay, previously optimized by our group. This probe was conjugated with the fluorogenic chromophore 7-amino-4-methylcoumarin (Ac-PLVQ-AMC). After proteolytic cleavage, it emits a detectable fluorescent signal.
Total RNA extract from retinoblastoma […] cells was used to obtain cDNA. A pair of oligonucleotides ([…] and […]) was used for the amplification of DNA fragment containing CtsB, the product of which was ligated into pET15b (Merck Millipore, Billerica, MA, USA) using NdeI and XhoI. DNA fragment containing CtsL was amplified using a pair of oligonucleotides ([…] and […]) and ligated into pET28a (+) (Merck Millipore, Billerica, MA, USA) using NheI and HindIII. […]
The activity of recombinant CtsL and B was detected by the hydrolysis of the fluorogenic substrate Ac-Pro-Leu-Val-Gln- 7-amino-4-methylcoumarin (AMC) (Pepmic Suzhou Jiangsu, China). […] The substrate was added to a final concentration of 50 μM, and its hydrolysis was continuously measured for 12 min using a CLARIOstar® Plus plate reader (BMG Labtech Ortenberg Baden-Württemberg, Germany) at excitation and emission wavelengths of 353 and 442 nm, respectively.

769-P cells = test: Cell viability with paclitaxel (MTT), 769-P; format: cell-based, human; settings: peptide 20 µM combined with PXT 100 nM; versus PXT alone
Description: (§1) To evaluate the inhibitory properties of the peptides directly on the human renal cancer cells, we firstly assessed the impact of Ac-PLVE-FMK and Ac-VLPE-FMK on the cell viability of 769-P and A498 cells to determine the working concentrations for further experiments. […] Further experiments were performed using a concentration of 20 μM. To understand if the peptides could affect the activity of caspase proteases, we tested their effect on cell viability in combination with the chemotherapeutic paclitaxel (PXT) in both the cell lines. […] Next, we evaluated the effect of the peptides on renal cancer cell proteolytic activity against the fluorogenic probe Ac-PLVQ-AMC. In this case, 769-p and A498 cells were treated for 30 min with Ac-PLVE-FMK or Ac-VLPE-FMK and were then exposed for 10 min to the substrate Ac-PLVQ-AMC prior fluorescence microscopy analysis (Figure 3c,d).
The cell number was evaluated by counting viable cells using the MTT (3-(4,5-dimethylthiazol-2-yl)-2,5-diphenyltetrazolium bromide) colorimetric assay. A total of 2 × 10^4 cells/well were seeded on independent 96-well plates for each time point (0, 24, 48, and 72 h), with five replicates and treated with two inhibitors (2.5–250 μM). Then, 10 µL of the MTT reagent was added to each well, and cells were incubated for another 5 h. Next, the absorbance value was measured using a CLARIOstar® Plus plate reader (BMG Labtech, Ortenberg, Germany) at 490 nm. Triplicate wells were assayed, and S.D.s were determined.
Figure S3. Combined effect of PXT and the inhibitors on 769‐P proliferation: 769‐P cells were treated with 100 nM of PXT alone or in combination with 20 μM of Ac‐PLVE and Ac‐VLPE and cell proliferation was measured after 24, 48, and 72 h via MTT assay. Data represent the mean (± S.D.) of three independent experiments, each performed in triplicate.
Figure S4. Spheroids size and circularity: (a,b) size and circularity of 769‐P and (c,d) A498 cells upon treatment with Ac‐PLVE‐FMK and Ac‐VLPE‐FMK. Data represent the mean (± S.D.) of three independent experiments, each performed in triplicate. […]

[1] = tested on: 769-P cells (proteolytic activity); test: Cell proteolytic activity towards Ac-PLVQ-AMC, 769-P; format: cell-based, human; settings: 30 min peptide, then 10 min Ac-PLVQ-AMC; fluorescence microscopy and fluorimetric analysis
Description: as §1
Figure 3 The effect of the peptide inhibitors on human 769-P and A498 renal cancer cell proliferation and proteolytic activity. […] Cell proliferation was measured after 24, 48, and 72 h via MTT (3-(4,5-dimethylthiazol-2-yl)-2,5-diphenyltetrazolium bromide) assay. […] (c) Fluorescence microscopy evaluation and quantification of the cell proteolytic activity in 769-P and (d) A498 cells towards the fluorogenic substrate Ac-PLVQ-AMC in the absence or presence of Ac-PLVE-FMK and Ac-VLPE-FMK. […]

[2] = tested on: 769-P cells (endolysosomal compartment); test: Neutral red assay (endolysosomal integrity), 769-P; format: cell-based, human; settings: 2.5–250 μM; 48 h
Description: (§2) Figure S6. The effect of the peptide inhibitors on human 769‐P and A498 renal cancer cell on
(§3) lysosomes integrity. (a) 769‐P and (b) A498 cells were treated with increasing doses of Ac‐PLVE‐FMK
(§4) (red bars) and Ac‐VLPE‐FMK (blue bars) (2.5–250 μM). NR uptake was measured after 24, 48, and 72
(§5) h via MTT assay. (c) LysoTracker red evaluation in 769‐P and (d) A498 cells after 24, 48, and 72 h with
(§6) the inhibitors (20 μM). Data represent the mean (± S.D.) of at least three independent experiments,
(§7) each performed in triplicate.

[3] = tested on: A498 cells (endolysosomal compartment); test: Neutral red assay (endolysosomal integrity), A498; format: cell-based, human; settings: 2.5–250 μM; 48 h
Description: as §2, §3, §4, §5, §6, §7

Ac-VLPE-CH2F [Ac-VLPE-FMK] was tested, and the “Inhibition of Ac-PLVQ-AMC cleavage (fluorescent signal)” value (human recombinant CtsL) was “the intensity of the fluorescent signal was significantly affected”, the “Effect on cell viability in combination with PXT” value (769-P cells) was “no significant differences were observed” and the “Inhibition of probe degradation (cell proteolytic activity)” value [1] was “significantly inhibited the probe degradation”. The Neutral red uptake [2] was “slightly increasing” and the Neutral red uptake [3] was “decreasing”.

Ac-PLVE-CH2F [Ac-PLVE-FMK] was tested, and the “Inhibition of Ac-PLVQ-AMC cleavage (fluorescent signal)” value (human recombinant CtsL) was “the intensity of the fluorescent signal was significantly affected”, the “Effect on cell viability in combination with PXT” value (769-P cells) was “no significant differences were observed” and the “Inhibition of probe degradation (cell proteolytic activity)” value [1] was “significantly inhibited the probe degradation”. For the same substance, the Neutral red uptake [2] was “slightly increasing” and the Neutral red uptake [3] was “decreasing”.
